Measurements taken from patent publication US20230203044A1, “PYRAZOLO[1,5-D][1,2,4]TRIAZINE-5(4H)-ACETAMIDES AS INHIBITORS OF THE NLRP3 INFLAMMASOME” (JANSSEN PHARMACEUTICA NV, priority 2020, published 2023).
Like-named read-outs stand apart in the source and are kept apart here.

Experiments:
TNF = assay: PBMC assay: TNF cytokine levels in LPS-stimulated human PBMCs (MSD); format: cell-based; details: 100 ng/ml LPS for 6 hrs, TNF in supernatant via MSD
Description: (§1) Peripheral venous blood was collected from healthy individuals and human peripheral blood mononuclear cells (PBMCs) were isolated from blood by Ficoll-Histopaque (Sigma-Aldrich, A0561) density gradient centrifugation. After isolation, PBMCs were stored in liquid nitrogen for later use. Upon thawing, PBMC cell viability was determined in growth medium (RPMI media supplemented with 10% fetal bovine serum, 1% Pen-Strep and 1% L-glutamine). Compounds were spotted in a 1:3 serial dilution in DMSO and diluted to the final concentration in 30 μl medium in 96 well plates (Falcon, 353072). PBMCs were added at a density of 7.5×10^4 cells per well and incubated for 30 min in a 5% CO2 incubator at 37° C. LPS stimulation was performed by addition of 100 ng/ml LPS (final concentration, Invivogen, tlrl-smlps) for 6 hrs followed by collection of cellular supernatant and the analysis of IL-1β (μM) and TNF cytokines levels (μM) via MSD technology according to manufacturers' guidelines (MSD, K151A0H).
The IC50 values (for IL-1β) and EC50 values (TNF) were obtained on compounds of the invention/examples, and are depicted in the following table: […]

NLRP3 inflammasome = assay: PBMC assay: IL-1β in LPS-stimulated human PBMCs (MSD); format: cell-based; details: read-out: IL1β IC50
Description: The activity of a compound according to the present invention can be assessed by in vitro methods.
as §1, with “Compounds were spotted in a 1:3 serial dilution in DMSO and diluted to the final concentration in 30 μl medium in 96 well plates (Falcon, 353072).” left out

[1] = human PBMCs, 100 ng/ml LPS for 6 hrs, IL-1β in supernatant via MSD

Structure (SMILES)	EC50 (TNF) [nM]	IC50 (NLRP3 inflammasome; [1]) [nM]	IC50 (NLRP3 inflammasome; Homo sapiens, 6 h) [nM]
CCc1cc2c(=O)n(CC(=O)Nc3ccncn3)nc(C(C)C)n2n1 [Final Cpd 1, 2-(2-ethyl-7-isopropyl-4-oxo-pyrazolo[1,5-d][1,2,4]triazin-5-yl)-N-pyrimidin-4-yl-acetamide]	> 10000	340	
CC(C)c1nn(CC(=O)Nc2ccncn2)c(=O)c2cc(I)nn12 [Final Cpd 2, 2-(2-iodo-7-isopropyl-4-oxo-pyrazolo[1,5-d][1,2,4]triazinyl)-N-pyrimidin-4-yl-acetamide]	> 10000	< 120	
CC(C)c1cc2c(=O)n(CC(=O)Nc3ccncn3)nc(C(C)C)n2n1 [Final Cpd 3]	> 10000	280	
CCc1nn(CC(=O)Nc2ccncn2)c(=O)c2cc(I)nn12 [Final Cpd 4, 2-(7-ethyl-2-iodo-4-oxo-pyrazolo[1,5-d][1,2,4]triazin-5-yl)-N-pyrimidin-4-yl-acetamide]	> 10000	290	
CCc1nn(CC(=O)Nc2ccc3nncn3c2)c(=O)c2cc(I)nn12 [Final Cpd 6]	> 10000	230	
CCc1nn(CC(=O)N[C@H]2C[C@@](C)(O)C2)c(=O)c2cc(I)nn12 [Final Cpd 7]	> 10000	600	
CC(C)c1nn(CC(=O)N[C@H]2C[C@@](C)(O)C2)c(=O)c2cc(C3CC3)nn12 [Final Cpd 8]	> 10000	240	
CC(C)c1nn(CC(=O)N[C@@H]2CCCN(C3CCC3)C2)c(=O)c2cc(C3CC3)nn12 [Final Cpd 9]	> 10000	< 120	
CCc1nn(CC(=O)Nc2ccncn2)c(=O)c2cc(C3CC3)nn12 [Final Cpd 10, 2-(2-cyclopropyl-7-ethyl-4-oxo-pyrazolo[1,5-d][1,2,4]triazin-5-yl)-N-pyrimidin-4-yl-acetamide]	> 10000	640	
CC(C)c1nn(CC(=O)Nc2ccncn2)c(=O)c2cc(C3CC3)nn12 [Final Cpd 11]	> 10000	170	
CCCc1cc2c(=O)n(CC(=O)Nc3ccncn3)nc(C(C)C)n2n1 [Final Cpd 12]	> 10000	600	
CCc1cc2c(=O)n(CC(=O)Nc3ccncn3)nc(CC)n2n1 [Final Cpd 13]	> 10000	1710	
CCc1nn(CC(=O)Nc2ccncn2)c(=O)c2cc(C)nn12 [Final Cpd 14]	> 10000	8110	
CCCc1cc2c(=O)n(CC(=O)Nc3ccncn3)nc(CC)n2n1 [Final Cpd 15]	> 10000	2400	
CCc1nn(CC(=O)Nc2ccncn2)c(=O)c2cc(C(C)C)nn12 [Final Cpd 16]	> 10000	840	
Cc1cc2c(=O)n(CC(=O)Nc3ccncn3)nc(C(C)C)n2n1 [Final Cpd 17]	> 10000	1100	
CNc1cc2c(=O)n(CC(=O)Nc3ccncn3)nc(C(C)C)n2n1 [Final Cpd 18, 2-[7-isopropyl-2-(methylamino)-4-oxo-pyrazolo[1,5-d] [1,2,4]triazin-5-yl]—N-pyrimidin-4-yl-acetamide]	> 10000	160	
CCc1nn(CC(=O)Nc2ccncn2)c(=O)c2cc(NC)nn12 [Final Cpd 20]	> 10000	1140	
CC(C)c1nn(CC(=O)Nc2ccncn2)c(=O)c2cc(N3CCC3)nn12 [Final Cpd 21]	> 10000	2750	
CC(C)c1nn(CC(=O)Nc2ccncn2)c(=O)c2cc(N(C)C)nn12 [Final Cpd 22]	> 10000	1350	
CC(C)c1nn(CC(=O)Nc2ccc3nncn3c2)c(=O)c2cc(I)nn12 [Final Cpd 23]	> 10000	55	
CC(C)c1nn(CC(=O)N[C@H]2C[C@@](C)(O)C2)c(=O)c2cc(I)nn12 [Final Cpd 24]	> 10000	110	
CC(C)c1nn(CC(=O)NC2CCC(=O)N(CC3CC3)C2)c(=O)c2cc(C3CC3)nn12 (stereo not shown) [Final Cpd 25]	> 10000	2340	
CC(C)c1nn(CC(=O)N[C@@H]2CCC(=O)N(CC3CC3)C2)c(=O)c2cc(C3CC3)nn12 [Final Cpd 26]	> 10000	> 10000	
CC(C)c1nn(CC(=O)N[C@H]2CCC(=O)N(CC3CC3)C2)c(=O)c2cc(C3CC3)nn12 [Final Cpd 27]	> 10000	990	
CC(C)c1nn(CC(=O)Nc2ccc(=O)n(C)c2)c(=O)c2cc(C3CC3)nn12 [Final Cpd 28]	> 10000	380	

Structure (SMILES)	EC50 (TNF) [nM]	IC50 (NLRP3 inflammasome; [1]) [nM]	IC50 (NLRP3 inflammasome; Homo sapiens, 6 h) [nM]
CC(C)c1nn(CC(=O)NC2CCC(=O)N(C)C2)c(=O)c2cc(C3CC3)nn12 (stereo not shown) [Final Cpd 29]	> 10000	1790	
CC(C)c1nn(CC(=O)N[C@@H]2CCC(=O)N(C)C2)c(=O)c2cc(C3CC3)nn12 [Final Cpd 30]	> 10000	1430	
CC(C)c1nn(CC(=O)N[C@H]2CCC(=O)N(C)C2)c(=O)c2cc(C3CC3)nn12 [Final Cpd 31]	> 10000	690	
CC(C)c1nn(CC(=O)Nc2ccnnc2)c(=O)c2cc(C3CC3)nn12 [Final Cpd 32]	> 10000	150	
CC(C)c1nn(CC(=O)N[C@@H]2CCOC[C@@H]2O)c(=O)c2cc(C3CC3)nn12 [Final Cpd 33]	> 10000	1560	
CC(C)c1nn(CC(=O)N[C@H]2CN(C(=O)OC(C)(C)C)CC[C@H]2O)c(=O)c2cc(C3CC3)nn12 [Final Cpd 34]	> 10000	5660	
CC(C)c1nn(CC(=O)Nc2ccc(=O)n(CC3CC3)c2)c(=O)c2cc(C3CC3)nn12 [Final Cpd 35]	> 10000	380	
CC(C)c1nn(CC(=O)NC2CCOCC2)c(=O)c2cc(C3CC3)nn12 [Final Cpd 36]	> 10000	970	
CN(C)c1nn(CC(=O)Nc2ccc3nncn3c2)c(=O)c2cc(C3CC3)nn12 [Final Cpd 37]	> 10000	560	
COCCN(C)c1nn(CC(=O)Nc2ccc3nncn3c2)c(=O)c2cc(C3CC3)nn12 [Final Cpd 38]	> 10000	> 10000	
COCCNc1nn(CC(=O)Nc2ccc3nncn3c2)c(=O)c2cc(C3CC3)nn12 [Final Cpd 39]	> 10000	2490	
CC(C)c1nn(CC(=O)N[C@H]2C[C@@](C)(O)C2)c(=O)c2cc(NCC(F)(F)F)nn12 [Final Cpd 41]	> 10000	880	
CC(C)c1nn(CC(=O)Nc2ccc3nncn3c2)c(=O)c2cc(NCC(F)(F)F)nn12 [Final Cpd 42]	> 10000	220	
CC(C)c1nn(CC(=O)N[C@H]2C[C@@](C)(O)C2)c(=O)c2c(F)c(C3CC3)nn12 [Final Cpd 43]	> 10000	1060	
CC(C)c1nn(CC(=O)Nc2ccc3nncn3c2)c(=O)c2c(F)c(C3CC3)nn12 [Final Cpd 44]	> 10000	620	
Cc1nn(CC(=O)NCc2ccc(F)cc2)c(=O)c2cc(C3CC3)nn12 [Final Cpd 47]	> 10000	> 10000	
Cc1nn(CC(=O)Nc2ccncn2)c(=O)c2cc(C3CC3)nn12 [Final Cpd 48]	> 10000	890	
Cc1nn(CC(=O)NCc2cccnc2)c(=O)c2cc(C3CC3)nn12 [Final Cpd 49]	> 10000	> 10000	
Cc1nn(CC(=O)N[C@]2(Cc3ccccc3)C[C@H](O)C2)c(=O)c2cc(C3CC3)nn12 [Final Cpd 50]	> 10000	> 10000	
Cc1nn(CC(=O)NC2(C(F)(F)F)CCOC2)c(=O)c2cc(C3CC3)nn12 (stereo not shown) [Final Cpd 51]	> 10000	> 10000	
Cc1nn(CC(=O)N[C@H]2C[C@H](N(C)Cc3ccccc3)C2)c(=O)c2cc(C3CC3)nn12 [Final Cpd 52]	> 10000	2310	
Cc1nn(CC(=O)N[C@H]2C[C@@H](OCc3ccccc3Cl)C2)c(=O)c2cc(C3CC3)nn12 [Final Cpd 53]	> 10000	> 10000	
Cc1nn(CC(=O)N[C@@H]2COC[C@H]2N2CCCCC2)c(=O)c2cc(C3CC3)nn12 [Final Cpd 54]	> 10000		> 10000
CCOC(=O)C1CC(Cc2cc3c(=O)n(CC(=O)Nc4ccnnc4)nc(C(C)C)n3n2)C1 (stereo not shown) [Final Cpd 177, ethyl 3-((7-isopropyl-4-oxo-5-(2-oxo-2-(pyridazin-4-ylamino)ethyl)-4,5-dihydropyrazolo[1,5-d][1,2,4]triazin-2-yl)methyl)cyclobutane-1-carboxylate]		2060	
CC(C)c1nn(CC(=O)N[C@H]2CN(C3CCC3)CC[C@H]2O)c(=O)c2cc(C3CC3)nn12 [Final Cpd 191, N-((3 S,4R)-1-cyclobutyl-4-hydroxypiperidin-3-yl)-2-(2-cyclopropyl-7-isopropyl-4-oxopyrazolo[1,5-d][1,2,4]triazin-5(4H)-yl)acetamide]	> 10000		
